Assay results: patent US6613718B2, “Aryl ether derivatives and processes for their preparation and herbicidal and desiccant compositions containing them” (Ishihara Sangyo Kaisha, Ltd., priority 2001, dated 2003)

Key:
Format in all cases: in vivo
Settings in all cases: 14 days after application
[1] = test system: barnyardgrass (Echinochloa crus-galli, ECHCG); test: Pre-emerge greenhouse herbicide activity screening, phytotoxicity rating
Procedure, shortened: (§1)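 Greenhouse screen. Sowing preceded application by one day (pre-emergence) or 8-21 days (post-emergence). Doses spanned 15 to 1000 g ai/ha in acetone. Score at day 14: 0 no injury, 100 total kill.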

[2] = test system: common ragweed (Ambrosia artemisiifolia L., AMBEL); test: as above
Procedure, shortened: as §1

[3] = test system: green foxtail (Setaria viridis, SETVI); test: as above
Procedure, shortened: as §1

[4] = test system: ivyleaf morningglory (Ipomoea hederacea, IPOHE); test: as above
Procedure, shortened: as §1

[5] = test system: johnsongrass (Sorghum halepense, SORHA); test: as above
Procedure, shortened: as §1

[6] = test system: lambsquarters (Chenopodium album, CHEAL); test: as above
Procedure, shortened: as §1

[7] = test system: large crabgrass (Digitaria sanguinalis, DIGSA); test: as above
Procedure, shortened: as §1

[8] = test system: redroot pigweed (Amaranthus retroflexus, AMARE); test: as above
Procedure, shortened: as §1

[9] = test system: sicklepod (Cassia obtusifolia, CASOB); test: as above
Procedure, shortened: as §1

[10] = test system: velvetleaf (Abutilon theophrasti, ABUTH); test: as above
Procedure, shortened: as §1

[11] = test system: field corn (Zea mays L., var. Dekalb 535, CORN); test: Pre-emerge greenhouse screening, crop safety (phytotoxicity rating)
Procedure, shortened: as §1

[12] = test system: soybean (Glycine max L., var. Pella 86, SOY); test: as above
Procedure, shortened: as §1

[13] = test system: upland rice (Oryza sp., var.Tebonnet, RICE); test: as above
Procedure, shortened: as §1

[14] = test system: barnyardgrass (Echinochloa crus-galli, ECHCG); test: Post-emerge greenhouse herbicide activity screening, phytotoxicity rating
Procedure, shortened: as §1

[15] = test system: common ragweed (Ambrosia artemisiifolia L., AMBEL); test: as above
Procedure, shortened: as §1

[16] = test system: green foxtail (Setaria viridis, SETVI); test: as above
Procedure, shortened: as §1

[17] = test system: ivyleaf morningglory (Ipomoea hederacea, IPOHE); test: as above
Procedure, shortened: as §1

[18] = test system: johnsongrass (Sorghum halepense, SORHA); test: as above
Procedure, shortened: as §1

[19] = test system: lambsquarters (Chenopodium album, CHEAL); test: as above
Procedure, shortened: as §1

[20] = test system: large crabgrass (Digitaria sanguinalis, DIGSA); test: as above
Procedure, shortened: as §1

[21] = test system: redroot pigweed (Amaranthus retroflexus, AMARE); test: as above
Procedure, shortened: as §1

[22] = test system: sicklepod (Cassia obtusifolia, CASOB); test: as above
Procedure, shortened: as §1

[23] = test system: velvetleaf (Abutilon theophrasti, ABUTH); test: as above
Procedure, shortened: as §1

[24] = test system: field corn (Zea mays L., var. Dekalb 535, CORN); test: Post-emerge greenhouse screening, crop safety / corn selectivity (phytotoxicity rating)
Procedure, shortened: as §1

[25] = test system: soybean (Glycine max L., var. Pella 86, SOY); test: Post-emerge greenhouse screening, crop safety (phytotoxicity rating)
Procedure, shortened: as §1

[26] = test system: upland rice (Oryza sp., var.Tebonnet, RICE); test: as above
Procedure, shortened: as §1

Structure (SMILES): Cn1nc(-c2cc(Oc3ncccn3)c(Cl)cc2F)c(=O)n(C)c1=S [Compound 4-1, 6-[4-Chloro-2-fluoro-5-(2-pyrimidinyloxy)phenyl]-3,4-dihydro-2,4-dimethyl-3-thioxo-1,2,4-triazin-5(2H)-one]
- ECHCG phytotoxicity rating (0-100 scale) ([1]; 125 g ai/ha): 90
- ECHCG phytotoxicity rating (0-100 scale) ([1]; 250 g ai/ha): 99
- AMBEL phytotoxicity rating (0-100 scale) ([2]; 125 g ai/ha): 85
- AMBEL phytotoxicity rating (0-100 scale) ([2]; 250 g ai/ha): 85
- SETVI phytotoxicity rating (0-100 scale) ([3]; 125 g ai/ha): 100
- SETVI phytotoxicity rating (0-100 scale) ([3]; 250 g ai/ha): 100
- IPOHE phytotoxicity rating (0-100 scale) ([4]; 125 g ai/ha): 75
- IPOHE phytotoxicity rating (0-100 scale) ([4]; 250 g ai/ha): 100
- SORHA phytotoxicity rating (0-100 scale) ([5]; 125 g ai/ha): 99
- SORHA phytotoxicity rating (0-100 scale) ([5]; 250 g ai/ha): 100
- CHEAL phytotoxicity rating (0-100 scale) ([6]; 125 g ai/ha): 100
- CHEAL phytotoxicity rating (0-100 scale) ([6]; 250 g ai/ha): 100
- DIGSA phytotoxicity rating (0-100 scale) ([7]; 125 g ai/ha): 99
- DIGSA phytotoxicity rating (0-100 scale) ([7]; 250 g ai/ha): 100
- AMARE phytotoxicity rating (0-100 scale) ([8]; 125 g ai/ha): 100
- AMARE phytotoxicity rating (0-100 scale) ([8]; 250 g ai/ha): 100
- CASOB phytotoxicity rating (0-100 scale) ([9]; 125 g ai/ha): 50
- CASOB phytotoxicity rating (0-100 scale) ([9]; 250 g ai/ha): 60
- ABUTH phytotoxicity rating (0-100 scale) ([10]; 125 g ai/ha): 65
- ABUTH phytotoxicity rating (0-100 scale) ([10]; 250 g ai/ha): 95
- CORN crop damage, phytotoxicity rating (0-100 scale) ([11]; 125 g ai/ha): 0
- CORN crop damage, phytotoxicity rating (0-100 scale) ([11]; 250 g ai/ha): 10
- SOY crop damage, phytotoxicity rating (0-100 scale) ([12]; 125 g ai/ha): 0
- SOY crop damage, phytotoxicity rating (0-100 scale) ([12]; 250 g ai/ha): 0
- RICE crop damage, phytotoxicity rating (0-100 scale) ([13]; 125 g ai/ha): 50
- RICE crop damage, phytotoxicity rating (0-100 scale) ([13]; 250 g ai/ha): 60
- ECHCG phytotoxicity rating (0-100 scale) ([14]; 125 g ai/ha): 55
- ECHCG phytotoxicity rating (0-100 scale) ([14]; 250 g ai/ha): 75
- AMBEL phytotoxicity rating (0-100 scale) ([15]; 125 g ai/ha): 30
- AMBEL phytotoxicity rating (0-100 scale) ([15]; 250 g ai/ha): 60
- SETVI phytotoxicity rating (0-100 scale) ([16]; 125 g ai/ha): 50
- SETVI phytotoxicity rating (0-100 scale) ([16]; 250 g ai/ha): 60
- IPOHE phytotoxicity rating (0-100 scale) ([17]; 125 g ai/ha): 70
- IPOHE phytotoxicity rating (0-100 scale) ([17]; 250 g ai/ha): 70
- SORHA phytotoxicity rating (0-100 scale) ([18]; 125 g ai/ha): 50
- SORHA phytotoxicity rating (0-100 scale) ([18]; 250 g ai/ha): 75
- CHEAL phytotoxicity rating (0-100 scale) ([19]; 125 g ai/ha): 99
- CHEAL phytotoxicity rating (0-100 scale) ([19]; 250 g ai/ha): 100
- DIGSA phytotoxicity rating (0-100 scale) ([20]; 125 g ai/ha): 50
- DIGSA phytotoxicity rating (0-100 scale) ([20]; 250 g ai/ha): 60
- AMARE phytotoxicity rating (0-100 scale) ([21]; 125 g ai/ha): 100
- AMARE phytotoxicity rating (0-100 scale) ([21]; 250 g ai/ha): 100
- CASOB phytotoxicity rating (0-100 scale) ([22]; 125 g ai/ha): 55
- CASOB phytotoxicity rating (0-100 scale) ([22]; 250 g ai/ha): 55
- ABUTH phytotoxicity rating (0-100 scale) ([23]; 125 g ai/ha): 99
- ABUTH phytotoxicity rating (0-100 scale) ([23]; 250 g ai/ha): 100
- CORN crop damage, phytotoxicity rating (0-100 scale) ([24]; 125 g ai/ha): 5
- CORN crop damage, phytotoxicity rating (0-100 scale) ([24]; 250 g ai/ha): 15
- SOY crop damage, phytotoxicity rating (0-100 scale) ([25]; 125 g ai/ha): 50
- SOY crop damage, phytotoxicity rating (0-100 scale) ([25]; 250 g ai/ha): 50
- RICE crop damage, phytotoxicity rating (0-100 scale) ([26]; 125 g ai/ha): 0
- RICE crop damage, phytotoxicity rating (0-100 scale) ([26]; 250 g ai/ha): 15

Structure (SMILES): Fc1cc(Cl)c(Oc2ncccn2)cc1-c1nn2c(c1Cl)CCCC2 [Compound 6-1, 3-Chloro-2-[4-chloro-2-fluoro-5-(2-pyrimidinyloxy)phenyl]-4,5,6,7-tetrahydro-pyrazolo[1,5-a]pyridine]
- ECHCG phytotoxicity rating (0-100 scale) ([1]; 125 g ai/ha): 99
- ECHCG phytotoxicity rating (0-100 scale) ([1]; 250 g ai/ha): 100
- AMBEL phytotoxicity rating (0-100 scale) ([2]; 125 g ai/ha): 100
- AMBEL phytotoxicity rating (0-100 scale) ([2]; 250 g ai/ha): 100
- SETVI phytotoxicity rating (0-100 scale) ([3]; 125 g ai/ha): 100
- SETVI phytotoxicity rating (0-100 scale) ([3]; 250 g ai/ha): 100
- IPOHE phytotoxicity rating (0-100 scale) ([4]; 125 g ai/ha): 99
- IPOHE phytotoxicity rating (0-100 scale) ([4]; 250 g ai/ha): 100
- SORHA phytotoxicity rating (0-100 scale) ([5]; 125 g ai/ha): 100
- SORHA phytotoxicity rating (0-100 scale) ([5]; 250 g ai/ha): 100
- CHEAL phytotoxicity rating (0-100 scale) ([6]; 125 g ai/ha): 100
- CHEAL phytotoxicity rating (0-100 scale) ([6]; 250 g ai/ha): 100
- DIGSA phytotoxicity rating (0-100 scale) ([7]; 125 g ai/ha): 100
- DIGSA phytotoxicity rating (0-100 scale) ([7]; 250 g ai/ha): 100
- AMARE phytotoxicity rating (0-100 scale) ([8]; 125 g ai/ha): 100
- AMARE phytotoxicity rating (0-100 scale) ([8]; 250 g ai/ha): 100
- CASOB phytotoxicity rating (0-100 scale) ([9]; 125 g ai/ha): 100
- CASOB phytotoxicity rating (0-100 scale) ([9]; 250 g ai/ha): 100
- ABUTH phytotoxicity rating (0-100 scale) ([10]; 125 g ai/ha): 100
- ABUTH phytotoxicity rating (0-100 scale) ([10]; 250 g ai/ha): 100
- CORN crop damage, phytotoxicity rating (0-100 scale) ([11]; 125 g ai/ha): 40
- CORN crop damage, phytotoxicity rating (0-100 scale) ([11]; 250 g ai/ha): 50
- SOY crop damage, phytotoxicity rating (0-100 scale) ([12]; 125 g ai/ha): 25
- SOY crop damage, phytotoxicity rating (0-100 scale) ([12]; 250 g ai/ha): 60
- RICE crop damage, phytotoxicity rating (0-100 scale) ([13]; 125 g ai/ha): 85
- RICE crop damage, phytotoxicity rating (0-100 scale) ([13]; 250 g ai/ha): 95
- ECHCG phytotoxicity rating (0-100 scale) ([14]; 125 g ai/ha): 90
- ECHCG phytotoxicity rating (0-100 scale) ([14]; 250 g ai/ha): 100
- AMBEL phytotoxicity rating (0-100 scale) ([15]; 125 g ai/ha): 85
- AMBEL phytotoxicity rating (0-100 scale) ([15]; 250 g ai/ha): 90
- SETVI phytotoxicity rating (0-100 scale) ([16]; 125 g ai/ha): 100
- SETVI phytotoxicity rating (0-100 scale) ([16]; 250 g ai/ha): 100
- IPOHE phytotoxicity rating (0-100 scale) ([17]; 125 g ai/ha): 100
- IPOHE phytotoxicity rating (0-100 scale) ([17]; 250 g ai/ha): 100
- SORHA phytotoxicity rating (0-100 scale) ([18]; 125 g ai/ha): 75
- SORHA phytotoxicity rating (0-100 scale) ([18]; 250 g ai/ha): 95
- CHEAL phytotoxicity rating (0-100 scale) ([19]; 125 g ai/ha): 100
- CHEAL phytotoxicity rating (0-100 scale) ([19]; 250 g ai/ha): 100
- DIGSA phytotoxicity rating (0-100 scale) ([20]; 125 g ai/ha): 90
- DIGSA phytotoxicity rating (0-100 scale) ([20]; 250 g ai/ha): 98
- AMARE phytotoxicity rating (0-100 scale) ([21]; 125 g ai/ha): 100
- AMARE phytotoxicity rating (0-100 scale) ([21]; 250 g ai/ha): 100
- CASOB phytotoxicity rating (0-100 scale) ([22]; 125 g ai/ha): 100
- CASOB phytotoxicity rating (0-100 scale) ([22]; 250 g ai/ha): 100
- ABUTH phytotoxicity rating (0-100 scale) ([23]; 125 g ai/ha): 100
- ABUTH phytotoxicity rating (0-100 scale) ([23]; 250 g ai/ha): 100
- CORN crop damage, phytotoxicity rating (0-100 scale) ([24]; 125 g ai/ha): 10
- CORN crop damage, phytotoxicity rating (0-100 scale) ([24]; 250 g ai/ha): 20
- SOY crop damage, phytotoxicity rating (0-100 scale) ([25]; 125 g ai/ha): 95
- SOY crop damage, phytotoxicity rating (0-100 scale) ([25]; 250 g ai/ha): 100
- RICE crop damage, phytotoxicity rating (0-100 scale) ([26]; 125 g ai/ha): 90
- RICE crop damage, phytotoxicity rating (0-100 scale) ([26]; 250 g ai/ha): 95
